From paper PMC12427625, “Heterochannels Kv(1.1-1.2)2 and Their Interactions with Pore Blockers” (Cells, 2025)
Where two headings read alike, the source gives them in different places. Bridge positions count the residues as written; N and C are the ends. Peptide text beside a SMILES is read from it.

Assays:
[1] = target: T1, human heterochannels Kv(1.1-1.2)2 (Homo sapiens, UniProt P16389+Q09470, S369T/S371T); assay: Competitive binding of peptide and HgTx-G to Kv(1.1-1.2)2 heterochannels; conditions: for Kd: Kv(1.1-1.2)2 formed by K-Kv1.1-1.2, competitive displacement of 0.5 nM HgTx-G, complete medium, 1 h, Cheng-Prusoff, mean ± SEM of three independent experiments, read-out: apparent dissociation constant (Kap); for affinity for Kv(1.1-1.2)2 in words: Kv(1.1-1.2)2, competitive binding with HgTx-G; for fold lower activity compared to Ce1: Kv(1.1-1.2)2, vs Ce1; for displacement of HgTx-G: 0.5 nM HgTx-G, 10 nM HgTx1 (Figure 1)
T1 construct: expressed in transfected cells; host or cells: mouse neuroblastoma Neuro-2a cells transfected with pmKate2-KCNA1-KCNA2
Description: To construct the gene encoding a fluorescent concatenated dimer mKate2-Kv1.1-Kv1.2 (K-Kv1.1-1.2), a cloning strategy was used, in which the C-terminus of the human Kv1.1 α-subunit was fused end-to-end to the N-terminus of the human Kv1.2 α-subunit via a short KL linker that corresponds to the HindIII restriction site. Here, we followed the design of the α-subunit concatemers proposed earlier. The previously obtained plasmids pmKate2-KCNA1 and pmKate2-KCNA2, which coded for mKate2-Kv1.1 (K-Kv1.1) and mKate2-Kv1.2 (K-Kv1.2) fusion proteins, were used for cloning. In these proteins, both human α-subunits Kv1.1 and Kv1.2 are N-terminally tagged with the red fluorescent protein mKate2 and harbor single mutations (S369T in Kv1.1, and S371T in Kv1.2) that improve the surface presentation of the homotetrameric channels. At first, pmKate2-KCNA1stopless was generated by amplification of the KCNA1 gene lacking TAA stop codon in a polymerase chain reaction (PCR) using a pair of oligonucleotide primers Kcna1-f1 (5′-[…]-3′) and Kcna1-Stop-r1 (5′-[…]-3′; BglII and HindIII sites are underlined). The obtained DNA fragment was hydrolyzed by BglII/HindIII restriction endonucleases and cloned into pmKate2-KCNA1 plasmid to substitute KCNA1 for KCNA1stopless. The obtained plasmid pmKate2-KCNA1stopless was further used as a vector to produce the KCNA1-KCNA2 dimer. For this, the KCNA2 gene was amplified in PCR using primers Kcna2-Hind-f1 (5′- […]-3′) and Kcna2-Sal-r1 ([…]-3′; HindIII, SalGI, and PstI sites are underlined; TAA stop codon is marked in bold) and cloned into HindIII/SalI sites of pmKate2-KCNA1stopless. The resulting pmKate2-KCNA1-KCNA2 plasmid encoded K-Kv1.1-1.2.
To analyze the binding of HgTx-G to heterochannels, HgTx-G (0.032–2 nM) was added to cells in the complete medium for 1 h. In the experiments with competitive binding, HgTx-G (0.5 nM) was added to cells, together with the studied peptide ([…]; 1.25–100 nM ChTx; 0.5–20 nM AgTx2, 2–10 nM MeKTx11-1, 0.063–1 nM Ce1, 0.063–1 nM Ce4, or 1 µM ScyTx), and incubated in the complete medium for 1 h.
Confocal microscopy measurements were carried out with the SP2 laser scanning confocal microscope (Leica Microsystems GmbH, Wetzlar, Germany), using the 63× water-immersion objective (HCX PL APO, NA = 1.2). Axial and lateral resolutions were 0.6 and 0.2 µm.
Fluorescence of proteins labeled with mKate2 was excited at 561 nm and detected in the 680–800 nm region. Fluorescence of HgTx-G was excited at 488 nm and recorded in the 495–540 nm region. The fluorescent probes of various cellular organelles were excited at 488 nm and detected in the 495–540 nm region.
Quantitative analysis of HgTx-G interaction with heterochannels was performed following the procedure developed previously. Briefly, confocal images of cells were used to calculate the ratio of the fluorescence intensity of HgTx-G bound to heterochannels to the fluorescence intensity of membrane-embedded heterochannels for each measured cell. This ratio was averaged over a sample of measured cells (20–30 cells) to obtain the Rav value and its standard deviation.
To characterize the affinity of unlabeled peptide for heterochannels, the competitive binding of this peptide and HgTx-G to heterochannels was measured at the constant concentration of HgTx-G (L) and increasing concentration (C) of the peptide. Rav data were calculated, plotted as a function of C, and fitted with the following equation:Rav(C) = Rav0/(1 + C/DC50)(2) where DC50 is the peptide concentration displacing 50% of HgTx-G from the complex with heterochannels, and Rav0 is Rav at C = 0.
Further, the Cheng–Prusoff equation was used to calculate the apparent dissociation constant (Kap) of the complex between the studied peptide and heterochannels:Kap = DC50/(1 + L/Kd)(3)
Three independent experiments were performed, and data on Kap were averaged and presented as mean ± SEM.

Kv1.2 [2] = assay: Competitive binding, homotetrameric Kv1.2 channel (earlier data); conditions: Kv1.2 vs Kv1.1 (Table 2)
Kv1.2 [3] = conditions: cited from earlier work; for Kd: Kv1.2, ref [35], read-out: Kap
Description: (§1) These properties were also similar to those reported by other investigators for the corresponding homotetrameric channels, Kv1.1 and Kv1.2. It was also shown that the Kd of the complexes between HgTx-G, a high-affinity fluorescent ligand for the Kv1.1 and Kv1.2 channels, and ...

Kv1.1 [4] = conditions: cited from earlier work; for Kd: Kv1.1, read-out: Kap
Description: as §1

Kv1.3 [5] = assay: Ce4 activity on Kv1.3 (earlier data); conditions: Table 2 and data published previously [35]
Kv1.1 [6] = assay: Competitive binding, homotetrameric Kv1.1 channel (earlier data); conditions: Table 2 and data published previously [35]
Kv1.2 [7] = tested on: Kv1.2; design: method as in PMID 9446567; conditions: HEK-293 cells; ref [14]; cited from earlier work
Kv1.6 = tested on: Kv1.6; design: method as in PMID 9446567; conditions: HEK-293 cells; ref [14]; cited from earlier work
Kv1.1 [8] = tested on: Kv1.1; design: method as in PMID 9446567; conditions: HEK-293 cells; ref [14]; cited from earlier work
Kv1.3 [9] = tested on: Kv1.3; design: method as in PMID 9446567; conditions: HEK-293 cells; ref [14]; cited from earlier work

T1 sequence (Q09470 whole entry S369T): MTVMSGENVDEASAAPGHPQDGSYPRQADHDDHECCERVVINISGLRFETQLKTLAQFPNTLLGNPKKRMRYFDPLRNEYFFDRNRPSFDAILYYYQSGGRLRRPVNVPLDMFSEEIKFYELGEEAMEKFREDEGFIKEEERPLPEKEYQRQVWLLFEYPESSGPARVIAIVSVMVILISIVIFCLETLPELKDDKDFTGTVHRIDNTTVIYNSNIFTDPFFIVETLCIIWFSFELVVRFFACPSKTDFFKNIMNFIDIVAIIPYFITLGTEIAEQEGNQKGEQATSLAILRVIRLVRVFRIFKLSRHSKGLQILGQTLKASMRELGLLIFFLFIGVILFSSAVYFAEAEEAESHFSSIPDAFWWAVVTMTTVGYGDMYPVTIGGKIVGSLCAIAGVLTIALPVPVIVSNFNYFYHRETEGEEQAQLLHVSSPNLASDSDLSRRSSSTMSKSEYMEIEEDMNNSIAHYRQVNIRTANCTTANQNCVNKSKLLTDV
T1 sequence (P16389 2-499 S371T): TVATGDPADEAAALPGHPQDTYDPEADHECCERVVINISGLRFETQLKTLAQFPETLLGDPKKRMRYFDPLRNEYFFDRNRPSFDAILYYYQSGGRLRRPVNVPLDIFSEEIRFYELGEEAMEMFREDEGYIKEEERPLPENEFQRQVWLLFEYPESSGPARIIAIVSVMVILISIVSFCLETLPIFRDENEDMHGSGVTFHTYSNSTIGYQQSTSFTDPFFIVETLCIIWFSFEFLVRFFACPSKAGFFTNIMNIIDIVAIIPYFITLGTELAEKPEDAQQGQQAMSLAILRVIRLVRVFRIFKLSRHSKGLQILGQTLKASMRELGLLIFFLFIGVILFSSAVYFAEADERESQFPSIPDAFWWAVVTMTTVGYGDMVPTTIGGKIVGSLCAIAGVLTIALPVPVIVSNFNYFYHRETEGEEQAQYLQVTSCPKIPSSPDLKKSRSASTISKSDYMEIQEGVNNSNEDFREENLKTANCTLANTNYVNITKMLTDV

SMILES | Kd [1] | activity against Kv1.2 compared to Kv1.1 (Kv1.2 [2]) | affinity for Kv(1.1-1.2)2 in words [1] | Kd (Kv1.2 [3]) | Kd (Kv1.1 [4]; ref [34]) | selectivity: activity against Kv1.2 and Kv(1.1-1.2)2 higher than against Kv1.3 (Kv1.3 [5]) | selectivity: activity against Kv1.2 and Kv(1.1-1.2)2 higher than against Kv1.1 (Kv1.1 [6]) | fold lower activity compared to Ce1 [1] | Kd (Kv1.1 [4]; ref [35]) | affinity, 86Rb+ flux inhibition (Kv1.2 [7]) | affinity, 86Rb+ flux inhibition (Kv1.6) | displacement of HgTx-G ([1]; channels formed by K-Kv1.1-1.2) | displacement of HgTx-G ([1]; channels formed by K-Kv1.2-1.1) | affinity, 86Rb+ flux inhibition (Kv1.1 [8]) | displacement of HgTx-G from the complexes (Kv1.2 [3]; K-Kv1.2-1.2 and K-Kv1.2, ref [28],[29]) | displacement of HgTx-G from the complexes (Kv1.1 [4]; K-Kv1.1-1.1 and K-Kv1.1, ref [28],[29]) | affinity, 86Rb+ flux inhibition (Kv1.3 [9])
CC[C@H](C)[C@@H]1NC(=O)[C@@H]2CSSC[C@@H]3NC(=O)[C@H](CCCCN)NC(=O)[C@H](CCCNC(=N)N)NC(=O)[C@H](CC(N)=O)NC(=O)[C@H](CCSC)NC(=O)[C@H](CSSC[C@H](NC(=O)[C@H](CO)NC(=O)[C@@H](NC(=O)[C@H](CC(N)=O)NC(=O)[C@@H](NC(=O)[C@@H]4CCCN4C(=O)[C@@H](NC(=O)CN)C(C)C)[C@@H](C)CC)C(C)C)C(=O)N[C@@H]([C@@H](C)O)C(=O)NCC(=O)N[C@@H](CO)C(=O)N4CCC[C@H]4C(=O)N[C@@H](CCC(N)=O)C(=O)N2)NC(=O)[C@H](CCCCN)NC(=O)CNC(=O)[C@H](Cc2ccccc2)NC(=O)[C@H](CCCNC(=N)N)NC(=O)[C@H](CCSC)NC(=O)CNC(=O)[C@H](C)NC(=O)[C@H](CC(=O)O)NC(=O)[C@H](CCCCN)NC(=O)[C@H](CSSC[C@@H](C(=O)N[C@H](C(=O)N2CCC[C@H]2C(=O)N[C@@H](CCCCN)C(=O)O)[C@@H](C)O)NC(=O)[C@H](Cc2c[nH]cn2)NC3=O)NC(=O)[C@@H]2CCCN2C(=O)[C@H](CCCCN)NC1=O [AgTx2, agitoxin 2] | 0.25 ± 0.05 nM | – | – | – | – | – | – | – | – | – | – | – | – | – | – | – | –
CC[C@H](C)[C@H](NC(=O)[C@@H](NC(=O)[C@@H](N)[C@@H](C)O)C(C)C)C(=O)N[C@@H](CC(N)=O)C(=O)N[C@H](C(=O)N[C@@H](CCCCN)C(=O)N[C@H]1CSSC[C@@H]2NC(=O)[C@H](CCCCN)NC(=O)[C@H](C)NC(=O)CNC(=O)[C@H](C)NC(=O)[C@H](Cc3c[nH]cn3)NC(=O)[C@@H]3CCCN3C(=O)CNC(=O)[C@H](Cc3ccc(O)cc3)NC(=O)[C@H](CC(C)C)NC(=O)[C@H](CC(=O)O)NC(=O)[C@H](CCCCN)NC(=O)[C@@H]3CSSC[C@@H](C(=O)N[C@@H](Cc4ccc(O)cc4)C(=O)N[C@@H](CC(N)=O)C(=O)N[C@@H](CC(N)=O)C(=O)O)NC(=O)[C@H](CCCCN)NC(=O)[C@H](CSSC[C@H](NC(=O)[C@H](CCC(N)=O)NC(=O)[C@H](CCCCN)NC(=O)[C@@H]4CCCN4C(=O)[C@H](CO)NC(=O)[C@H]([C@@H](C)O)NC1=O)C(=O)N[C@@H](CC(C)C)C(=O)N[C@@H](CCCCN)C(=O)N1CCC[C@H]1C(=O)N3)NC(=O)[C@H](CCCCN)NC(=O)CNC(=O)[C@H](CC(N)=O)NC(=O)[C@H](CCSC)NC2=O)C(C)C [Ce1] (H-TVINVKCTSPKQCLKPCKDLYGPHAGAKCMNGKCKCYNN-OH; disulfide 7-29, 13-34, 17-36; N-terminus and C-terminus assumed) | – | much higher activity against the Kv1.2 channel than against the Kv1.1 channel | highest picomolar affinity | 0.01 ± 0.002 nM | 11 ± 5 nM | – | – | – | – | – | – | – | – | – | – | – | –
CC[C@H](C)[C@H](NC(=O)[C@H](CCCCN)NC(=O)[C@H](Cc1ccc(O)cc1)NC(=O)[C@@H]1CSSC[C@@H]2NC(=O)[C@@H]3CCCN3C(=O)[C@H](CC(C)C)NC(=O)[C@H](CC(C)C)NC(=O)[C@@H]3CSSC[C@H](NC(=O)[C@H](CCCCN)NC(=O)CNC(=O)[C@H](CC(N)=O)NC(=O)[C@H](CCSC)NC(=O)[C@H](CSSC[C@H](NC(=O)[C@H](CCCCN)NC(=O)[C@@H](NC(=O)[C@H](CC(N)=O)NC(=O)[C@@H](NC(=O)[C@@H](NC(=O)[C@@H](N)[C@@H](C)O)[C@@H](C)CC)[C@@H](C)CC)C(C)C)C(=O)N[C@@H]([C@@H](C)O)C(=O)N[C@@H](CO)C(=O)N4CCC[C@H]4C(=O)N[C@@H](CCCCN)C(=O)N[C@@H](CCC(N)=O)C(=O)N3)NC(=O)[C@H](CCCCN)NC(=O)[C@H](C)NC(=O)CNC(=O)[C@H](C)NC(=O)[C@H](Cc3c[nH]cn3)NC(=O)[C@H]([C@@H](C)CC)NC(=O)CNC(=O)[C@H](Cc3ccc(O)cc3)NC(=O)[C@H]([C@@H](C)CC)NC(=O)[C@H](CCC(=O)O)NC(=O)[C@H](CCCCN)NC2=O)C(=O)N[C@@H](CCCCN)C(=O)N1)C(=O)O [Ce4] (H-TIINVKCTSPKQCLLPCKEIYGIHAGAKCMNGKCKCYKI-OH; disulfide 7-29, 13-34, 17-36; N-terminus and C-terminus assumed) | – | much higher activity against the Kv1.2 channel than against the Kv1.1 channel | – | 0.03 ± 0.01 nM | – | > 1000 times | more than 10,000 times | approximately threefold | > 300 nM | – | – | – | – | – | – | – | –
CC[C@H](C)[C@@H]1NC(=O)CNC(=O)[C@H](Cc2ccccc2)NC(=O)[C@H](CCC(N)=O)NC(=O)[C@H](C)NC(=O)[C@H](CCCCN)NC(=O)[C@@H]2CSSC[C@@H](C(=O)N[C@@H](Cc3ccc(O)cc3)C(=O)N3CCC[C@H]3C(=O)N[C@@H](Cc3c[nH]cn3)C(=O)O)NC(=O)[C@H](CCCCN)NC(=O)[C@@H]3CSSC[C@H](NC(=O)[C@H](CCC(N)=O)NC(=O)[C@H](CCCCN)NC(=O)[C@@H]4CCCN4C(=O)[C@H](CO)NC(=O)[C@H]([C@@H](C)O)NC(=O)[C@@H](NC(=O)[C@H](CCCCN)NC(=O)[C@@H](NC(=O)[C@H](CC(=O)O)NC(=O)[C@@H](NC(=O)[C@@H](NC(=O)[C@@H](N)[C@@H](C)O)C(C)C)[C@@H](C)CC)C(C)C)CSSC[C@H](NC(=O)[C@H](CCCCN)NC(=O)[C@H](C)NC(=O)CNC(=O)[C@H](C)NC(=O)[C@H](CCCNC(=N)N)NC1=O)C(=O)N[C@@H](CCSC)C(=O)N[C@@H](CC(N)=O)C(=O)NCC(=O)N[C@@H](CCCCN)C(=O)N3)C(=O)N[C@@H](CC(C)C)C(=O)N1CCC[C@H]1C(=O)N1CCC[C@H]1C(=O)N2 [HgTx1, hongotoxin 1] (H-TVIDVKCTSPKQCLPPCKAQFGIRAGAKCMNGKCKCYPH-OH; disulfide 7-29, 13-34, 17-36; N-terminus and C-terminus assumed) | 0.04 ± 0.01 nM | – | very high affinity | 0.02 ± 0.01 nM | 0.03 ± 0.02 nM | – | – | approximately threefold | – | subnanomolar | nanomolar | displaced HgTx-G | displaced HgTx-G | subnanomolar | displaced | displaced | subnanomolar
